Measurements reported in US11957713B2, “Compositions and methods for treating diseases and disorders of the central nervous system” (priority 2016, dated 2024).

Experiments:
[1] = tested on: bone marrow and brain clonogenic cells; assay: Colony forming unit (CFU) output of bone marrow and brain cells after conditioning; type: in vivo, mice; conditions: busulfan conditioning, 14 days after plating
Experimental: FIG. 6A depicts an experimental scheme for HCT. CFUs were plated from bone marrow (BM) and brain of naïve (UT), BU-treated and irradiated (IRR) mice, as well as from mice previously transplanted with CD45.2 GFP-transduced HSPCs (BU-HCT). FIG. 6B is a graph depicting number of colonies (#CFC) obtained from the tissues of BU and IRR animals. FIG. 6C is a graph depicting number of colonies (#CFC) and of GFP^+ CFCs obtained from the tissues of BU-HCT animals. FIG. 6D is a graph depicting frequency of GFP^+ cells (and lineage differentiation for BM) retrieved by FACS analysis in BM and brain of secondary recipient mice receiving BM or brain cells or peripheral blood mononuclear cells from primary recipients; mice were sacrificed 4 months after transplant.
HSPCs have been identified within extramedullary tissues and thought to be transiently localized at those sites and able to proliferate locally giving rise to tissue-resident myeloid cells, preferentially dendritic cells. Clonogenic potential was referred to the presence of these cells also in the brain, however upon establishment of parabiotic pairs and differently from what observed in other extra-medullary tissues, chimerism between the two animals was not observed in the brain. […]

brain-resident μP = assay: Intra-brain (ICV) administration of busulfan through a cannula in the lateral ventricles
CD45^+ brain cells = assay: γH2AX (flow cytometry, immunofluorescence) and annexin V in brain after systemic busulfan conditioning; type: in vivo, mice
Experimental: FIGS. 15A15-C depict identification of brain-resident putative μ progenitors by BU-susceptibility. […] Inset is a representative laser-scanning confocal microscope photomicrographs of co-immunostaining for γH2AX, neurons (NeuN), microglia (Ibal) or astrocytes (GFAP). Sca1e bar=[…]. Images were acquired at confocal microscope Radiance 2100 (Bio-Rad) 1×70 at magnification 20× and processed by the Soft Work 3.5.0; reconstruction was performed with Adobe Photoshop CS 8.0 software. Magnification 40× in the insets.
Previous studies have provided evidence for the existence of i) a functionally defined microglia precursor population located in the brain and susceptible to ablation upon administration of a busulfan-based conditioning and that may coincide with endogenous CNS-resident microglial progenitors (μP). Phosphorylated histone 2AX (γH2AX) is a sensitive and specific biomarker to track the cells targeted by busulfan in the brain. Thus, functional brain resident μP could be identified by taking advantage of busulfan and γH2AX, which is a pharmacodynamic marker of its cytotoxicity within these cells. γH2AX was investigated as a biomarker of busulfan cytotoxicity. In particular, the presence, distribution and cellular localization of γH2AX were studied by flow cytometry (FC) and immunofluorescence (IF) on brain slices from mice treated with systemic busulfan conditioning. […] By IF, γH2AX was hardly detectable in control mice, except for some γH2AX^+ foci found in few neuronal cells, mainly localized in the hippocampus (FIG. 16C top picture), where a correlation between physiological neuronal activity and H2AX phosphorylation has previously been shown. […] Similar experiments are on going in mice expressing reporter genes expressed by the promoter of markers of hematopoietic stem cell- and microglia-specific genes, such as Fgd5 or Cx3Cr1 in order to better track busulfan-susceptible cells.

[2] = tested on: microglia progenitors, CD45^+c-kit^+ cells; assay: Pretreatment to induce microglia progenitor proliferation; type: in vivo, mice; conditions: single dose of busulfan 25 mg/kg or ten days oral CSF 1R inhibitor
Experimental: These NP formulations were injected ICV in the brain of wild type adult animals that were pretreated with i) a single dose of busulfan 25 mg/kg or ii) ten days of oral administered CSF 1R inhibitor ((Elmore et al., Neuron. […] Five days after NP injection, animals were analyzed for the occurrence of Etoposide-mediated killing of microglia cells and/or their progenitors, using busulfan standard treatment (4 doses of 25 mg/kg) as reference for brain microglia progenitor ablation.

For `CS(=O)(=O)OCCCCOS(C)(=O)=O` [busulfan], which CFU output [1] is on record?
The CFU output was “drastic reduction in the CFU output”.

What about the “neurotoxicity and local inflammation” value (brain-resident μP; ICV administration of busulfan) of the same molecule?
The value was “extensive neurotoxicity and local inflammation”.

And the “transplanted HSPC engraftment” value (brain-resident μP; ICV administration of busulfan, data not shown)?
Its value is “nor able to favor transplanted HSPC engraftment”.

And the “exposure of brain-resident μP to busulfan versus systemic drug administration” value (brain-resident μP; ICV administration, different busulfan formulations, data not shown)?
The value was “not able to guarantee exposure of brain-resident μP to busulfan levels comparable to those reached by systemic drug administration”.

What about the “early apoptosis by annexin V staining” value (CD45^+ brain cells; CD45^+ brain cells, particularly CD11b^+ and c-kit^+, post-busulfan) of the same molecule?
Its value is “early apoptosis is also detected”.

What about the “γH2AX signal by immunofluorescence on brain slices” value (CD45^+ brain cells; busulfan-treated mice, lateral ventricles, SVZ, RMS) of the same molecule?
Its value is “γH2AX^+ signal was increased in nuclei of cells lining the lateral ventricles”.

What about the “γH2AX signal by flow cytometry” value (CD45^+ brain cells; busulfan-treated versus control untreated, live CD45^+ cells, 1 and 5 days from the last busulfan dose) of the same molecule?
Its value is “increase of γH2AX signal”.

What about the “proliferation of microglia progenitors / expansion of CD45^+c-kit^+ cells in brain” value [2] of the same molecule?
The value was “induce the proliferation of microglia progenitors and/or expand CD45^+c-kit^+ cells in the brain”.
